test system: genotype A, "Long" strain RSV; assay: RSV-A assay (CPE protection in Hep-2 cells, ATPlite readout); assay type: cell-based, Human respiratory syncytial virus (HRSV); conditions: human respiratory syncytial virus, genotype A “Long” strain RSV, MOI 0.1, CPE protection, read-out: Human RSV-A (“Long”)
Outline: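 Hep-2 cells (8,000/well) infected with RSV Long strain at MOI 0.1 in the presence of 2-fold compound dilutions in duplicate. After 5 days, cell viability measured by ATPlite luminescence, normalized between virus-only and uninfected cell controls; EC50 reported.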

EC50 [nM] | SMILES
< 200 | COc1cc(C(=O)NC[C@](O)(c2cc3c(c(-c4ccc(F)cc4)n2)OC[C@]3(C)C(N)=O)C2CC2)ccc1OC1CC1 [Example 316]
< 200 | C[C@@H](O)COc1ccc(C(=O)NC[C@](O)(c2cc3c(c(-c4ccc(F)cc4)n2)OC[C@]3(C)C(N)=O)C2CC2)cc1OC1CC1 [Example 317]
< 200 | C[C@]1(C(N)=O)COc2c1cc([C@@](O)(CNC(=O)c1ccc3[nH]c(=O)oc3c1)C(F)(F)F)nc2-c1ccc(F)cc1 [Example 318]
< 200 | COc1cc(C(=O)NC[C@](O)(c2cc3c(c(-c4ccc(F)cc4)n2)OC[C@]3(C)C(N)=O)C2CC2)cc2cc(Cl)c(C)nc12 [Example 319]
< 200 | COc1cc(C(=O)NC[C@](O)(c2cc3c(c(-c4ccc(F)cc4)n2)OC[C@]3(C)C(N)=O)C2CC2)cn2cc(C3CC3)nc12 [Example 320]
< 200 | COc1cc2cc(C(=O)NC[C@](O)(c3cc4c(c(-c5ccc(F)cc5)n3)OC[C@]4(C)C(N)=O)C(F)(F)F)ccc2nc1Cl [Example 325]
< 200 | COc1cc2cc(C(=O)NC[C@](O)(c3cc4c(c(-c5ccc(F)cc5)n3)OC[C@]4(C)C(N)=O)C(F)(F)F)ccc2nc1C [Example 326]
< 200 | Cc1cnc2c(NC(=O)N(C)C3CC3)cc(C(=O)NC[C@](O)(c3cc4c(c(-c5ccc(F)cc5)n3)OC[C@]4(C)C(N)=O)C(F)(F)F)cc2c1 [Example 328]
> 200 | [2H]C([2H])([2H])NC(=O)Nc1cc(C(=O)NC[C@](O)(c2cc3c(c(-c4ccc(F)cc4)n2)OC[C@]3(C)C(N)=O)C(F)(F)F)cc2ccc(C)nc12 [Example 330]
< 200 | C[C@]1(C(N)=O)COc2c1cc([C@@](O)(CNC(=O)c1cc(OC3CC3)n3nc(C4CC4)cc3c1)C1CC1)nc2-c1ccc(F)cc1 [Example 331]
< 200 | C[C@]1(C(N)=O)COc2c1cc([C@@](O)(CNC(=O)c1ccn3nc(C4CC4)cc3c1)C1CC1)nc2-c1ccc(F)cc1 [Example 332]
> 200 | C[C@]1(C(N)=O)COc2c1cc([C@@](O)(CNC(=O)c1cnc3[nH]ccc3c1Cl)C(F)(F)F)nc2-c1ccc(F)cc1 [Example 333]
> 200 | Cc1ncccc1C(=O)NC[C@](O)(c1cc2c(c(-c3ccc(F)cc3)n1)OC[C@]2(C)C(N)=O)C(F)(F)F [Example 334]
> 200 | C[C@]1(C(N)=O)COc2c1cc([C@@](O)(CNC(=O)c1nc3cccnc3s1)C(F)(F)F)nc2-c1ccc(F)cc1 [Example 335]
> 200 | COc1ccc2cc(C(=O)NC[C@](O)(c3cc4c(c(-c5ccc(F)cc5)n3)OC[C@]4(C)C(N)=O)C(F)(F)F)n(C)c2c1 [Example 336]
> 200 | Cn1cc(C(=O)NC[C@](O)(c2cc3c(c(-c4ccc(F)cc4)n2)OC[C@]3(C)C(N)=O)C(F)(F)F)nn1 [Example 337]
> 200 | C[C@]1(C(N)=O)COc2c1cc([C@@](O)(CNC(=O)c1cc3ccc(C(F)(F)F)cc3[nH]1)C(F)(F)F)nc2-c1ccc(F)cc1 [Example 338]
> 200 | CC(C)Oc1ccc2cc(C(=O)NC[C@](O)(c3cc4c(c(-c5ccc(F)cc5)n3)OC[C@]4(C)C(N)=O)C(F)(F)F)[nH]c2c1 [Example 339]
< 200 | COC(=O)Nc1cc(C(=O)NC[C@](O)(c2cc3c(c(-c4ccc(F)cc4)n2)OC[C@]3(C)C(N)=O)C(F)(F)F)ccc1F [Example 340]
> 200 | C[C@]1(C(N)=O)COc2c1cc([C@@](O)(CNC(=O)c1cc3c(cc1Cl)NC(=O)C3)C(F)(F)F)nc2-c1ccc(F)cc1 [Example 341]
> 200 | C[C@]1(C(N)=O)COc2c1cc([C@@](O)(CNC(=O)c1cnoc1C1CC1)C(F)(F)F)nc2-c1ccc(F)cc1 [Example 342]
> 200 | C[C@]1(C(N)=O)COc2c1cc([C@@](O)(CNC(=O)c1cnc3cc[nH]c3c1)C(F)(F)F)nc2-c1ccc(F)cc1 [Example 343]
< 200 | Cc1cc(C(=O)NC[C@](O)(c2cc3c(c(-c4ccc(F)cc4)n2)OC[C@]3(C)C(N)=O)C(F)(F)F)ccn1 [Example 344]
> 200 | C[C@]1(C(N)=O)COc2c1cc([C@@](O)(CNC(=O)c1c[nH]c3cc(Cl)ccc13)C(F)(F)F)nc2-c1ccc(F)cc1 [Example 345]

Second part, the compound before the results:

SMILES | EC50 [nM]
COc1cc(C(=O)NC[C@](O)(c2cc3c(c(-c4ccc(F)cc4)n2)OC[C@]3(CF)C(N)=O)C(F)(F)F)cc2cc(Cl)c(C)nc12 [Example 285] | < 200
COc1cc(C(=O)NC[C@](O)(c2cc3c(c(-c4ccc(F)cc4)n2)OC[C@@]3(CF)C(N)=O)C(F)(F)F)cc2cc(C(F)(F)F)cnc12 [Example 286] | < 200
COc1cc(C(=O)NC[C@](O)(c2cc3c(c(-c4ccc(F)cc4)n2)OC[C@]3(CF)C(N)=O)C(F)(F)F)cc2cc(C(F)(F)F)cnc12 [Example 287] | < 200
COc1cc(C(=O)NC[C@](O)(c2cc3c(c(-c4ccc(F)cc4)n2)OCC3(CF)C(N)=O)C(F)(F)F)cc2cn(C(F)F)nc12 (stereo partly drawn) [Example 288] | < 200
NC(=O)[C@]1(CF)COc2c1cc([C@@](O)(CNC(=O)c1cc(F)c3nc(N)sc3c1)C(F)(F)F)nc2-c1ccc(F)cc1 [Example 289] | > 200
NC(=O)[C@@]1(CF)COc2c1cc([C@@](O)(CNC(=O)c1cc(F)c3nc(N)sc3c1)C(F)(F)F)nc2-c1ccc(F)cc1 [Example 290] | < 200
COc1cc(C(=O)NC[C@](O)(c2cc3c(c(-c4ccc(F)cc4)n2)OC[C@@]3(CF)C(N)=O)C(F)(F)F)cn2cc(C3CC3)nc12 [Example 291] | > 200
COc1cc(C(=O)NC[C@](O)(c2cc3c(c(-c4ccc(F)cc4)n2)OC[C@]3(CF)C(N)=O)C(F)(F)F)cn2cc(C3CC3)nc12 [Example 292] | < 200
C[C@@H](O)COc1ccc(C(=O)NC[C@](O)(c2cc3c(c(-c4ccc(F)cc4)n2)OC[C@@]3(CF)C(N)=O)C(F)(F)F)cc1OC1CC1 [Example 293] | > 200
C[C@@H](O)COc1ccc(C(=O)NC[C@](O)(c2cc3c(c(-c4ccc(F)cc4)n2)OC[C@]3(CF)C(N)=O)C(F)(F)F)cc1OC1CC1 [Example 294] | < 200
COc1cc(C(=O)NC[C@](O)(c2cc3c(c(-c4ccc(F)cc4)n2)OCC3(CF)C(N)=O)C(F)(F)F)cc2cn(C3CC3)nc12 (stereo partly drawn) [Example 295] | < 200
NC(=O)[C@]1(CF)COc2c1cc([C@@](O)(CNC(=O)c1cc(OC3CC3)c3ncccc3c1)C(F)(F)F)nc2-c1ccc(F)cc1 [Example 296] | > 200
NC(=O)[C@@]1(CF)COc2c1cc([C@@](O)(CNC(=O)c1cc(OC3CC3)c3ncccc3c1)C(F)(F)F)nc2-c1ccc(F)cc1 [Example 297] | < 200
COc1cc(C(=O)NC[C@](O)(c2cc3c(c(-c4ccc(F)cc4)n2)OC[C@@]3(CF)C(N)=O)C(F)(F)F)ccc1OC1CC1 [Example 298] | > 200
COc1cc(C(=O)NC[C@](O)(c2cc3c(c(-c4ccc(F)cc4)n2)OC[C@]3(CF)C(N)=O)C(F)(F)F)ccc1OC1CC1 [Example 299] | < 200
COc1cc(C(=O)NC[C@](O)(c2cc3c(c(-c4ccc(F)cc4)n2)OC[C@]3(C)C(N)=O)C2CC2)cc2cn(C3CC3)nc12 [Example 302] | < 200
COc1cc(C(=O)NC[C@](O)(c2cc3c(c(-c4ccc(F)cc4)n2)OC[C@]3(C)C(N)=O)C2CC2)cc2cn(C(F)F)nc12 [Example 303] | < 200
CCS(=O)(=O)c1ccc(-c2nc([C@@](O)(CNC(=O)c3cc(F)c4nc(N)sc4c3)C(F)(F)F)cc3c2OC[C@]3(C)C(N)=O)cc1 [Example 311] | > 200

From US12612412B2, “Antiviral heterocyclic compounds” (Enanta Pharmaceuticals, Inc., priority 2021, dated 2026)
